≈ marks a conversion by molar mass, not a printed value. Calls of active or inactive are those of the source. No cut-off for these calls is given here.
Legend:
[1] = Distribution coefficient, logD of the compound at pH 7.4; settings: octanol/water
[2] = Kinetic solubility of compound at pH 7.4; format: physicochemical; settings: buffer, read-out: Kinetic_solubility
[3] = target: T1, Estrogen receptor (Homo sapiens) (UniProt P03372); assay: Induction of ERalpha degradation in human MCF7 cells assessed as maximum degradation by immunofluorescence assay relative to control; format: cell-based
T1 sequence (whole entry): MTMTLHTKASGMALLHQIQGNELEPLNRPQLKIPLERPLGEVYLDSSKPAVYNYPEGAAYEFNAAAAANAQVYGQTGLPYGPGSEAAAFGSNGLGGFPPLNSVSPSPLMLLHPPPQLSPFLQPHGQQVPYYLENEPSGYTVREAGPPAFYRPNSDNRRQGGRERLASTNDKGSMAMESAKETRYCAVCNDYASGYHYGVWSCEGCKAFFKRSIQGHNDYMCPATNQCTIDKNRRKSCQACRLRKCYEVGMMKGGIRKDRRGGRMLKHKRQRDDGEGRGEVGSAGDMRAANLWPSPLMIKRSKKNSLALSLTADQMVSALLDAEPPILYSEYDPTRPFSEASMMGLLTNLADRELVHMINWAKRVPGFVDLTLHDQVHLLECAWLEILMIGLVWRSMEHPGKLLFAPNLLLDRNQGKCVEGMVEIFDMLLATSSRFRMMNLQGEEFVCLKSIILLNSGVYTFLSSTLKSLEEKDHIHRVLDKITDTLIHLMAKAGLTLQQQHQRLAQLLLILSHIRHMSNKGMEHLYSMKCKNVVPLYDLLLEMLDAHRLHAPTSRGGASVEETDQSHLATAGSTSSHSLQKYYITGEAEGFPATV

Estrogen receptor [4] = target: T2, Estrogen receptor (Homo sapiens, UniProt P03372); assay: Induction of ERalpha degradation in human MCF7 cells by immunofluorescence assay; format: cell-based
T2 sequence (P03372 whole entry): T1 sequence (whole entry)

[5] = Volume of distribution at steady state in rat; format: ADME; settings: in vivo, read-out: Vdss
[6] = system: Estrogen receptor (Homo sapiens), P03372 [Y537S]; assay: Induction of ERalpha Y537S mutant degradation expressed in human MCF7 cells assessed as maximum degradation by immunofluorescence assay relative to control; format: cell-based
Estrogen receptor (Homo sapiens), P03372 [Y537S], sequence (P03372 whole entry Y537S): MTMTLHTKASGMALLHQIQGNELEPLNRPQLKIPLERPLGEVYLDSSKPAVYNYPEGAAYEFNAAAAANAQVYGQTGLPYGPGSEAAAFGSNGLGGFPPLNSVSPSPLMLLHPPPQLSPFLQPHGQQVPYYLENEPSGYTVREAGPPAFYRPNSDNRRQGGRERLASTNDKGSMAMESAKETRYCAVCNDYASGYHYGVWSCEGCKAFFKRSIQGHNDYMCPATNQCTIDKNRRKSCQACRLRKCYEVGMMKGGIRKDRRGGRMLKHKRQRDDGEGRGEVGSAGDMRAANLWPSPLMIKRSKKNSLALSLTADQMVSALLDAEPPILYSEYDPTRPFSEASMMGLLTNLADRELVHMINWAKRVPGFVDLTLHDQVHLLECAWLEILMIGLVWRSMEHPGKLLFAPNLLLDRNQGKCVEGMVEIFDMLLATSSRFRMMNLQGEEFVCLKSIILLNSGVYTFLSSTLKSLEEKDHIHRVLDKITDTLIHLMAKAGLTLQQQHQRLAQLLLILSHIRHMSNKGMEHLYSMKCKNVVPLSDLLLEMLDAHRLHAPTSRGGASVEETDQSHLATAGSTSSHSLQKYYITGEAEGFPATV

[7] = Half life in rat; format: ADME; settings: in vivo
[8] = Apparent permeability across basolateral to apical side in MDCK cells; format: ADME, cell-based, Canis lupus familiaris; settings: dog
[9] = Clearance in rat at 1 mg/kg, iv; format: ADME, organism-based; settings: in vivo
MCF7 [10] = assay: Antiproliferation activity against human MCF7 cells assessed as reduction in cell viability measured by CellTiter-Glo luminescent assay; format: functional, cell-based
[11] = Oral bioavailability in rat; format: ADME, organism-based; settings: in vivo
in vitro = settings: dog, MDCK
MCF7 [12] = assay: Antitumor activity against human MCF7 cells xenografted in mouse assessed as tumor growth inhibition at 60 mg/kg, po QD for 4 weeks; format: functional, organism-based
MCF7 [13] = assay: Antitumor activity against human MCF7 cells xenografted in po dosed mouse assessed as tumor growth inhibition measured after 4 weeks; format: functional, organism-based; settings: dose 10-100 mg/kg
[14] = AUC in mouse at 10 mg/kg, po; format: ADME, organism-based; parameters: dose 10 mg/kg; settings: in vivo
MCF7 [15] = assay: Antitumor activity against human MCF7 cells xenografted in mouse assessed as tumor growth inhibition at 100 mg/kg, po measured after 4 weeks; format: functional, organism-based
[16] = Toxicity in mouse xenografted with human MCF7 cells assessed as body weight loss at 1 to 100 mg/kg, po administered for 4 weeks; format: organism-based; settings: in vivo, 672 h, dose 1-100 mg/kg
Estrogen receptor [17] = target: T2, Estrogen receptor; assay: Displacement of fluorescein PGC1alpha from recombinant ERalpha (unknown origin)
Estrogen receptor [18] = target: Estrogen receptor (Homo sapiens, UniProt P03372, Y537S); assay: Induction of ERalpha Y537S mutant degradation expressed in human MCF7 cells by immunofluorescence assay; format: cell-based
Estrogen receptor (Homo sapiens, UniProt P03372, Y537S), sequence (P03372 whole entry Y537S): as above

[19] = AUC in mouse at 100 mg/kg, po; format: ADME, organism-based; parameters: dose 100 mg/kg; settings: in vivo
[20] = Protein binding in human plasma assessed as unbound fraction; format: ADME, cell-free

| SMILES | logD [1] | solubility kinetic [2] | %max [3] | DC50 (Estrogen receptor [4]) | also measured |
| --- | --- | --- | --- | --- | --- |
| C[C@@H]1Cc2c([nH]c3ccccc23)[C@@H](c2c(F)cc(OC3CN(CCCF)C3)cc2F)N1C(=O)C1(F)CC1 | 4.1 | 13 µM (≈ 6.7 µg/mL) | 95% | 0.32 nM |  |
| C[C@@H]1Cc2c([nH]c3ccccc23)[C@@H](c2c(F)cc(OCCN3CC(CF)C3)cc2F)N1S(C)(=O)=O | 2.3 | 113 µM (≈ 57.4 µg/mL) | 93% |  | Vd [5]: 17.3 L/kg; %max [6]: 86%; half-life [7]: 7 h; Papp B→A [8]: 4 ×10⁻⁶ cm/s; clearance [9]: 27.5 mL/min/kg; IC50 (MCF7 [10]): 0.5 nM; bioavailability [11]: 47%; Papp A→B (in vitro): 4 ×10⁻⁶ cm/s |
| C[C@@H]1Cc2c([nH]c3ccccc23)[C@@H](c2c(F)cc(OCCN3CC(CF)C3)cc2F)N1C(=O)C1COC1 | 1.8 | 117 µM (≈ 60.1 µg/mL) | 92% | 4 nM |  |
| C[C@@H]1Cc2c([nH]c3ccccc23)[C@@H](c2c(F)cc(OCCN3CC(CF)C3)cc2F)N1C(=O)[C@@H](C)CF | 2.5 | 115 µM (≈ 59.5 µg/mL) | 98% | 0.34 nM |  |
| CC/C(=C(\c1ccccc1)c1ccc(OCCN(C)C)cc1)c1ccccc1 |  |  |  |  | Activity (MCF7 [12]): Active |
| CC(C)C(=O)N1[C@H](c2c(F)cc(OCCN3CC(CF)C3)cc2F)c2[nH]c3ccccc3c2C[C@H]1C |  | 135 µM (≈ 67.4 µg/mL) | 95% | 0.11 nM |  |
| C[C@@H]1Cc2c([nH]c3ccccc23)[C@@H](c2c(F)cc(OCCN3CC(CF)C3)cc2F)N1C(=O)CC1CC1 | 3.1 | 111 µM (≈ 56.8 µg/mL) | 95% | 5 nM |  |
| C[C@@H]1Cc2c([nH]c3ccccc23)[C@@H](c2ccc(OCCN3CC(CF)C3)cc2)N1S(C)(=O)=O | 2.2 | 118 µM (≈ 55.6 µg/mL) | 93% | 0.18 nM | Activity (MCF7 [13]): Dose-Dependent Effect; Vd [5]: 7.7 L/kg; %max [6]: 82%; AUC [14]: 1.8 µM·h; half-life [7]: 13 h; Activity (MCF7 [15]): Active; Activity [16]: Non-Toxic; Papp B→A [8]: 6 ×10⁻⁶ cm/s; IC50 (Estrogen receptor [17]): 11 nM; DC50 (Estrogen receptor [18]): 1.2 nM; clearance [9]: 7 mL/min/kg; IC50 (MCF7 [10]): 0.5 nM; AUC [19]: 28.9 µM·h; bioavailability [11]: 32%; Papp A→B (in vitro): 5 ×10⁻⁶ cm/s |
| C[C@@H]1Cc2c([nH]c3ccccc23)[C@@H](c2c(F)cc(OCCN3CC(CF)C3)cc2F)N1C(=O)C(C)(C)F | 3.2 | 95 µM (≈ 49.2 µg/mL) | 94% |  | Vd [5]: 32 L/kg; half-life [7]: 3.1 h; Papp B→A [8]: 1 ×10⁻⁶ cm/s; clearance [9]: 120 mL/min/kg; bioavailability [11]: 33%; Papp A→B (in vitro): 1 ×10⁻⁶ cm/s |
| C[C@@H]1Cc2c([nH]c3ccccc23)[C@@H](c2c(F)cc(OC3CN(CCCF)C3)cc2F)N1C(=O)C(C)(C)F | 4 | < 1 µM | 100% | 0.42 nM |  |
| C[C@@H]1Cc2c([nH]c3ccccc23)[C@@H](c2c(F)cc(OCCN3CC(CF)C3)cc2F)N1C(=O)C1CNC1 | -0.2 | 96 µM (≈ 49.2 µg/mL) |  | > 10 nM |  |
| C[C@@H]1Cc2c([nH]c3ccccc23)[C@@H](c2c(F)cc(OCCN3CC(CF)C3)cc2F)N1C(=O)C1CC1 | 2.1 | 181 µM (≈ 90.1 µg/mL) | 89% | 3 nM |  |
| C[C@@H]1Cc2c([nH]c3ccccc23)[C@@H](c2c(F)cc(OCCN3CC(CF)C3)cc2F)N1C(=O)C(C)(F)F |  | 30 µM (≈ 15.6 µg/mL) | 95% | 0.15 nM |  |

Now from value to molecule, other results behind:

| logD [1] | solubility kinetic [2] | %max [3] | DC50 (Estrogen receptor [4]) | SMILES | also measured |
| --- | --- | --- | --- | --- | --- |
| 3.3 | 92 µM (≈ 47.3 µg/mL) | 90% | 0.49 nM | C[C@@H]1Cc2c([nH]c3ccccc23)[C@@H](c2c(F)cc(OCCN3CC(CF)C3)cc2F)N1C(=O)C(C)(C)C |  |
| 2.5 | 53 µM (≈ 25 µg/mL) | 91% |  | CC(=O)N1[C@H](c2c(F)cc(OCCN3CC(CF)C3)cc2F)c2[nH]c3ccccc3c2C[C@H]1C |  |
| 4.3 | < 1 µM | 96% | 1.2 nM | C[C@@H]1Cc2c([nH]c3ccccc23)[C@@H](c2c(F)cc(OC3CN(CCCF)C3)cc2F)N1C(=O)C1(F)CCC1 |  |
| 2.5 | 102 µM (≈ 52.8 µg/mL) | 96% | 0.4 nM | C[C@H](CF)C(=O)N1[C@H](c2c(F)cc(OCCN3CC(CF)C3)cc2F)c2[nH]c3ccccc3c2C[C@H]1C |  |
| 2.5 | 135 µM (≈ 66.1 µg/mL) | 93% | 0.19 nM | C[C@@H]1Cc2c([nH]c3ccccc23)[C@@H](c2ccc(OCCN3CC(CF)C3)cc2F)N1S(C)(=O)=O | Vd [5]: 9.6 L/kg; half-life [7]: 11 h; Papp B→A [8]: 5 ×10⁻⁶ cm/s; IC50 (Estrogen receptor [17]): 17 nM; clearance [9]: 10.2 mL/min/kg; IC50 (MCF7 [10]): 0.4 nM; bioavailability [11]: 48%; Papp A→B (in vitro): 4 ×10⁻⁶ cm/s |
| 1.8 | 156 µM (≈ 80.4 µg/mL) | 91% | 4 nM | CC(CO)C(=O)N1[C@H](c2c(F)cc(OCCN3CC(CF)C3)cc2F)c2[nH]c3ccccc3c2C[C@H]1C (some centres undefined) |  |
|  | < 1 µM | 100% |  | C[C@@H]1Cc2c([nH]c3ccccc23)[C@@H](c2c(F)cc(OC3CN(CCCF)C3)cc2F)N1CC(C)(C)F | Papp B→A [8]: 0.2 ×10⁻⁶ cm/s; fraction unbound [20]: < 0.001; Papp A→B (in vitro): 0.4 ×10⁻⁶ cm/s |

Source: ChEMBL document CHEMBL4808242, “Discovery of GNE-502 as an orally bioavailable and potent degrader for estrogen receptor positive breast cancer” (Bioorg Med Chem Lett, 2021)
